# Reference: patent US20260234187A1, “ANTIMICROBIAL PEPTIDES” (MATERIAS S.R.L., priority 2020, published 2026)
# Where no end group is shown, it is not given here.
# What was measured:
# S. typhimurium = format: cell-based, Salmonella typhimurium; conditions: S. typhimurium
# Description: The evaluation of the Minimum Bactericidal Concentration (MBC), i.e., the lowest concentration of antimicrobial agent capable of 99.9% inhibition of bacterial growth on plates, was carried out as described in Bílikova et al, (2015, Peptides 68:190-196). […] It should be noted that the peptide object of the present invention is more powerful and efficient than the peptide IDR-1018-K6 (described in patent application WO2019012158) against the pathogenic bacteria L. monocytogenes and S. typhimurium, with bactericidal concentration values 4-fold and 7-fold lower, respectively, compared to those shown by IDR-1018-K6.
# [1] = tested on: Candida albicans (ATCC 14053); assay: activity against yeast, plate count, MFC; format: cell-based; conditions: C. albicans; 25 μM, 6 h
# Description: The inhibitory activity of the RiLK1 peptide was determined against the yeast Candida albicans. A stock culture was prepared in which 10^5 CFUs of C. albicans were inoculated in 10 ml of buffered peptone water. A reference strain (ATCC 14053) was used for this species. The culture was incubated for 6 h at 37° C. with the RiLK1 peptide at 25 μM concentrations. At the same time, control samples were incubated without adding the peptide. 100 μl of the samples thus prepared were seeded on DG18 plates (Dichloran 18% Glycerol Agar-ISO 21527-2) and incubated at 25° C. for 7 days. All experimental conditions investigated used the plate count method to estimate the antimycotic activity of the peptide. Specifically, the numbers of colonies grown on agar plates seeded with the cultures in the absence or presence of the individual peptide dilutions were counted and compared. The standard deviations of the triplicate incubations of each plate were determined using statistical software. The evaluation of the Minimum Fungicidal Concentration (MFC), i.e., the lowest concentration of antifungal agent capable of 99.9% inhibition of fungal growth on plates, was carried out as described in Bílikova et al, (2015, Peptides 68:190-196).
# [2] = kinetics of structural rearrangements by Circular Dichroism, secondary structure by BESTSEL and Dichroweb; format: physicochemical; conditions: sodium acetate pH 4
# Description: The structural and conformational characterization of the RiLK1 peptide was assessed by investigating its secondary structure by Circular Dichroism (CD) spectroscopy in the absence and in the presence of Sodium Dodecyl Sulfate (SDS) at a concentration of 3 mM to mimic the condition of the bacterial cell membrane.
# The CD assays were performed with a Jasco J-810 spectropolarimeter equipped with a thermostated cuvette holder. The samples were loaded into a 0.1 cm long quartz cuvette (Hellma Analytics) and the spectrum was analysed in the range from 190 nm to 250 nm at room temperature for each sample.
# The CD spectra were acquired at a scan rate of 20 nm/min, and the recorded results represent an average of 5 scans.
# The mean residue ellipticity ([θ], degrees cm^2 dmol^−1) was calculated using the following equation: […]
# The secondary structure was calculated through the DICHROWEB site (Whitmore L and Wallace B A, 2004, Nucleic Acids Research 32:668-673, Whitmore L and Wallace B A, 2008, Biopolymers 89:392-400, Lobley et al, 2002, Bioinformatics 18:211-212), using three different algorithms (SELCON3, CONTIN-LL and CDSSTR) (Sreerema N and Woody R W, 1993, Analytical Biochemistry 287:252-260) and selecting the SMP180 protein as the comparison data set, which includes a high number of spectra of soluble and membrane proteins (Abdul-Gader A et al, 2011, Bioinformatics 27:1630-1636).
# The secondary structure was also calculated through the BETSEL site (Micsonai A. et al, 2018, Nucleic Acids Res. 46: W315-W322; Micsonai A. et al, 2015, Proc Natl Acad Sci USA; 112: E3095-E3103).
# The kinetics of the structural rearrangements of the RiLK1 peptide were assessed over 24 hours by Circular Dichroism (CD) spectroscopy and fluorescence spectroscopy.
# 0.1 g/L of RiLK1 peptide was dissolved in 10 mM sodium acetate buffer at pH 4, in the absence or presence of 3 mM SDS.
substance,measurement,setting,value
"RLKWVRIWRR-NH2 [RiLK1, RLKWVRIWRR]",bactericidal concentration lower compared to IDR-1018-K6,S. typhimurium,7 fold
same,Drop Log CFU/ml,[1],5 Log CFU/ml
same,post-treatment decrease in the fungal load,[1],5 Log
same,Random (Bestsel),[2]; t = 0 w/ 3 mM SDS,41.3%
same,Random (DichroWeb CONTIN-LL),[2]; t = 0 w/ 3 mM SDS,40%
same,α-helix (Bestsel),[2]; t = 0 w/ 3 mM SDS,7.4%
same,α-helix (DichroWeb CONTIN-LL),[2]; t = 0 w/ 3 mM SDS,22%
same,β-sheet (Bestsel),[2]; t = 0 w/ 3 mM SDS,51.4%
same,β-sheet (DichroWeb CONTIN-LL),[2]; t = 0 w/ 3 mM SDS,38%
same,Random (Bestsel),[2]; t = 5 min w/ 3 mM SDS,42.2%
same,Random (DichroWeb CONTIN-LL),[2]; t = 5 min w/ 3 mM SDS,36%
same,α-helix (Bestsel),[2]; t = 5 min w/ 3 mM SDS,4.4%
same,α-helix (DichroWeb CONTIN-LL),[2]; t = 5 min w/ 3 mM SDS,22%
same,β-sheet (Bestsel),[2]; t = 5 min w/ 3 mM SDS,53.4%
same,β-sheet (DichroWeb CONTIN-LL),[2]; t = 5 min w/ 3 mM SDS,42%
same,Random (Bestsel),[2]; t = 30 min w/ 3 mM SDS,40.3%
same,Random (DichroWeb CONTIN-LL),[2]; t = 30 min w/ 3 mM SDS,37%
same,α-helix (Bestsel),[2]; t = 30 min w/ 3 mM SDS,11%
same,α-helix (DichroWeb CONTIN-LL),[2]; t = 30 min w/ 3 mM SDS,25%
same,β-sheet (Bestsel),[2]; t = 30 min w/ 3 mM SDS,48.7%
same,β-sheet (DichroWeb CONTIN-LL),[2]; t = 30 min w/ 3 mM SDS,38%
same,Random (DichroWeb CONTIN-LL),[2]; t = 1 h (60 min) w/ 3 mM SDS,39%
same,α-helix (DichroWeb CONTIN-LL),[2]; t = 1 h (60 min) w/ 3 mM SDS,23%
same,β-sheet (DichroWeb CONTIN-LL),[2]; t = 1 h (60 min) w/ 3 mM SDS,38%
same,Random (Bestsel),[2]; t = 1 h w/ 3 mM SDS,39.1%
same,α-helix (Bestsel),[2]; t = 1 h w/ 3 mM SDS,9.8%
same,β-sheet (Bestsel),[2]; t = 1 h w/ 3 mM SDS,51.1%
same,Random (DichroWeb CONTIN-LL),[2]; t = 5 h (300 min) w/ 3 mM SDS,38%
same,α-helix (DichroWeb CONTIN-LL),[2]; t = 5 h (300 min) w/ 3 mM SDS,19%
same,β-sheet (DichroWeb CONTIN-LL),[2]; t = 5 h (300 min) w/ 3 mM SDS,43%
same,Random (Bestsel),[2]; t = 5 h w/ 3 mM SDS,39.3%
same,α-helix (Bestsel),[2]; t = 5 h w/ 3 mM SDS,6.7%
same,β-sheet (Bestsel),[2]; t = 5 h w/ 3 mM SDS,54%
same,Random (DichroWeb CONTIN-LL),[2]; t = 6 h (360 min) w/ 3 mM SDS,37%
same,α-helix (DichroWeb CONTIN-LL),[2]; t = 6 h (360 min) w/ 3 mM SDS,19%
same,β-sheet (DichroWeb CONTIN-LL),[2]; t = 6 h (360 min) w/ 3 mM SDS,44%
same,Random (Bestsel),[2]; t = 6 h w/ 3 mM SDS,40.1%
same,α-helix (Bestsel),[2]; t = 6 h w/ 3 mM SDS,8%
same,β-sheet (Bestsel),[2]; t = 6 h w/ 3 mM SDS,52%
same,Random (Bestsel),[2]; t = 24 h w/ 3 mM SDS,38%
same,Random (DichroWeb CONTIN-LL),[2]; t = 24 h w/ 3 mM SDS,24%
same,α-helix (Bestsel),[2]; t = 24 h w/ 3 mM SDS,8.4%
same,α-helix (DichroWeb CONTIN-LL),[2]; t = 24 h w/ 3 mM SDS,29%
same,β-sheet (Bestsel),[2]; t = 24 h w/ 3 mM SDS,53.6%
same,β-sheet (DichroWeb CONTIN-LL),[2]; t = 24 h w/ 3 mM SDS,47%
same,Random (Bestsel),[2]; w/o 3 mM SDS,51.5%
same,Random (DichroWeb CONTIN-LL),[2]; w/o 3 mM SDS,61%
same,α-helix (Bestsel),[2]; w/o 3 mM SDS,1.2%
same,α-helix (DichroWeb CONTIN-LL),[2]; w/o 3 mM SDS,4%
same,β-sheet (Bestsel),[2]; w/o 3 mM SDS,47.3%
same,β-sheet (DichroWeb CONTIN-LL),[2]; w/o 3 mM SDS,35%
